Reference: ChEMBL document CHEMBL1201862, “PubChem BioAssay data set” (2004)
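Dose response: 5 concentrations. Exposure: 48 h. Format: 96-well plates. Endpoint: linear interpolation; highest concentration if not reached. GI50 is the concentration that inhibits growth by half.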 Calls of active or inactive are those of the source. Cut-off read from the data, not from the text of the source: active = GI50 up to about 1.1 µM and inactive = higher.

Tests used:
Experiment in all cases: inhibition of tumour cell growth, NCI panel, 48 h
SR = test system: SR
NCI-H460 = test system: NCI-H460
NCI-H226 = test system: NCI-H226
TK-10 = test system: TK-10
DLD-1 = test system: DLD-1
U-251 = test system: U-251
CCRF-CEM = test system: CCRF-CEM
SK-MEL-5 = test system: SK-MEL-5
SF-268 = test system: SF-268
NCI-H522 = test system: NCI-H522
HCC 2998 = test system: HCC 2998
DMS-273 = test system: DMS-273
UO-31 = test system: UO-31
A498 = test system: A498
OVCAR-3 = test system: OVCAR-3
UACC-257 = test system: UACC-257
MOLT-4 = test system: MOLT-4
M19-MEL = test system: M19-MEL
K562 = test system: K562
ACHN = test system: ACHN
RPMI-8226 = test system: RPMI-8226
786-0 = test system: 786-0
SF-539 = test system: SF-539
OVCAR-8 = test system: OVCAR-8
OVCAR-4 = test system: OVCAR-4
HCT-116 = test system: HCT-116
Malme-3M = test system: Malme-3M
SK-MEL-2 = test system: SK-MEL-2
UACC-62 = test system: UACC-62
SNB-75 = test system: SNB-75
HL-60 = test system: HL-60
M14 = test system: M14
COLO 205 = test system: COLO 205
OVCAR-5 = test system: OVCAR-5
A549 = test system: A549
DMS-114 = test system: DMS-114
HOP-62 = test system: HOP-62
SN12C = test system: SN12C
IGROV-1 = test system: IGROV-1
NCI-H23 = test system: NCI-H23
EKVX = test system: EKVX
SK-MEL-28 = test system: SK-MEL-28
KM-20L2 = test system: KM-20L2
KM12 = test system: KM12
CAKI-1 = test system: CAKI-1
HOP-92 = test system: HOP-92
HCT-15 = test system: HCT-15
SW-620 = test system: SW-620
SNB-19 = test system: SNB-19
LOX IMVI = test system: LOX IMVI

## COc1ccc(/C=c2\sc3n(c2=O)C(N)=C(C#N)C(c2ccc(OC)cc2)C=3c2nc3ccccc3[nH]2)cc1 (stereo not given)
SR
  GI50: 39.5 µM (inactive)
NCI-H460
  GI50: 18.6 µM (inactive)
NCI-H226
  GI50: 27 µM (inactive)
TK-10
  GI50: 16.1 µM (inactive)
DLD-1
  GI50: > 10 µM (inactive)
U-251
  GI50: 18 µM (inactive)
CCRF-CEM
  GI50: 39.2 µM (inactive)
SK-MEL-5
  GI50: 16.9 µM (inactive)
SF-268
  GI50: 42.1 µM (inactive)
NCI-H522
  GI50: 45.7 µM (inactive)
HCC 2998
  GI50: 16.4 µM (inactive)
DMS-273
  GI50: 33.4 µM (inactive)
UO-31
  GI50: > 100 µM (inactive)
A498
  GI50: 29.6 µM (inactive)
OVCAR-3
  GI50: 19.6 µM (inactive)
UACC-257
  GI50: 28.9 µM (inactive)
MOLT-4
  GI50: 29.1 µM (inactive)
M19-MEL
  GI50: 28.7 µM (inactive)
K562
  GI50: > 100 µM (inactive)
ACHN
  GI50: 34.4 µM (inactive)
RPMI-8226
  GI50: 55.6 µM (inactive)
786-0
  GI50: > 100 µM (inactive)
SF-539
  GI50: > 10 µM (inactive)
OVCAR-8
  GI50: > 10 µM (inactive)
OVCAR-4
  GI50: > 100 µM (inactive)
HCT-116
  GI50: 27.2 µM (inactive)
Malme-3M
  GI50: 22.6 µM (inactive)
SK-MEL-2
  GI50: 28.6 µM (inactive)
UACC-62
  GI50: 79.4 µM (inactive)
SNB-75
  GI50: 29.6 µM (inactive)
HL-60
  GI50: 41.2 µM (inactive)
M14
  GI50: 77.1 µM (inactive)
COLO 205
  GI50: 56.4 µM (inactive)
OVCAR-5
  GI50: 27.4 µM (inactive)
A549
  GI50: 33.7 µM (inactive)
DMS-114
  GI50: 30.8 µM (inactive)
HOP-62
  GI50: 38.7 µM (inactive)
SN12C
  GI50: 78.7 µM (inactive)
IGROV-1
  GI50: 44.7 µM (inactive)
NCI-H23
  GI50: 5.02 µM (inactive)
EKVX
  GI50: 22.6 µM (inactive)
SK-MEL-28
  GI50: 18.5 µM (inactive)
KM-20L2
  GI50: 42.2 µM (inactive)
KM12
  GI50: 14.2 µM (inactive)
CAKI-1
  GI50: 21.4 µM (inactive)
HOP-92
  GI50: 12.2 µM (inactive)
HCT-15
  GI50: 27.1 µM
SW-620
  GI50: 27.7 µM (inactive)
SNB-19
  GI50: > 100 µM (inactive)
LOX IMVI
  GI50: 18 µM (inactive)
